Measured values: PMC10788937, “Chemical Catalysis Guides Structural Identification for the Major In Vivo Metabolite of the BET Inhibitor JQ1” (ACS Medicinal Chemistry Letters, 2024)

Experiments:
[1] = biological target: BRDT (Homo sapiens, UniProt Q58F21); assay type: binding; conditions: SPR, his-BRDT; for Kd: read-out: BRDT binding Kd
Method: (§1) The samples are collected at specific time-points (0, 5, 10, 20, 40, and 60 min. The reactions are terminated by adding equivalent volume of ice-cold MeOH and vortexed. The reaction mixtures are centrifuged at rcf 15,000 for 15 min. Five μL of the supernatant will be analyzed by UHPLC-Q Exactive Orbitrap MS (Thermo Fisher Scientific, San Jose, CA) equipped with 50 mm × 4.6 mm column (XDB C-18, Agilent Technologies, Santa Clara, CA). The column temperature is maintained at 40 °C. The flow rate of is at 0.3 mL/min with a 30% mobile phase (acetonitrile containing 0.1% formic acid). Q Exactive MS is operated in positive or negative mode with electrospray ionization. Ultrapure nitrogen is applied as the sheath (45 arbitrary unit), auxiliary (10 arbitrary unit), sweep (1.0 arbitrary unit) and the collision gas. The capillary gas temperature is set at 275 °C and the capillary voltage was set at 3.7 kV. MS data were acquired from 80 to 1200 Da in […]
(§2) The Surface Plasmon Resonance (SPR) experiment was conducted using a Pioneer FE SPR System (Sartorius) equipped with a SPR HisCap Sensor
(§3) Chip. The instrument was calibrated and validated prior to the experiment according to the manufacturer's instructions. The chip surface was activated with a mixture of N-hydroxysuccinimide (NHS), 50 mM, and N-ethyl-N'-(3-dimethylaminopropyl) carbodiimide (EDC), 200 mM, at a 20 µL/min flow rate for 5. minutes. Covalent attachment of his-BRDT to channel 1 was achieved by injecting 150 µL of protein at 10 mg/mL at […]. Channel 2 of the chip was used as a blank reference and unreacted functional groups of both channels were blocked using ethanolamine.
(§4) SPR running buffer consisted of 100 mM Tris-HCl, 200 mM NaCl, and 0.05% Tween-20. […]
(§5) closely mimics the buffer conditions and injected at 40µL/min using the OneStep injection system at 0.5, 5, and 50 µM concentrations. The real-

[2] = in vitro
Method: as §1, §2, §3, §4, §5

[3] = test system: BRD4; conditions: read-out: BRD4 IC50; ALPHAScreen, biotin-tagged (+)-JQ1 probe
[4] = Pharmacokinetic studies in mice (1:1 mixture, intraperitoneal); assay type: in vivo, mice (C57BL/6NJ); conditions: for AUC(0-t) / CL/F / half-life at 24 h: C57BL/6NJ, mouse, plasma, ip, 50 mg/kg 1:1 mixture, intraperitoneal
Description: The observed improvement in male mice was not determined to be significant, but the gender differences are not unprecedented in human drug metabolism, as the clearance of CYP3A substrates occurs more rapidly by females than males.[35] Gender differences in hepatic CYP expression have been identified in mice, rats, and humans,[36] including a female-specific CYP3A family member in mice,[37] and circadian variations in mice can accentuate the sex differences in CYP3A isoform expression.[38] […] It is noteworthy that the relationship between AUC and half-life can be affected with no correlation due to influence on both by various factors such as target-mediated drug disposition, drug formulation, route of administration, metabolism, absorption, and elimination pathways.[39],[40] AUC0–t represents the cumulative effect, while t1/2 represents only the rate at which the drug is eliminated from the body. […]
time binding response was recorded using the instrument software and sensorgrams were analyzed using the QDAT software. The baseline subtraction, referencing, and double-referencing techniques were applied to obtain specific binding responses. Kinetic parameters were calculated by fitting sensograms to OneStep binding models for determining the dissociation rate constant (kd) for the highest concentration and constraining the lower concentrations to the determined value. All data was locally fitted to a simple 1:1 interaction model.
Pharmacokinetic studies in mice
Mouse studies were performed under protocols approved by the Institutional Animal Care and Use Committee of Baylor College of Medicine and guidelines established by the NIH Guide for the Care and Use of Laboratory Animals. Animals were housed under standard conditions of a 12-hour light/dark cycle in a vivarium with controlled ambient temperature (70˚ ± 2˚ and 20-70% relative humidity). Pharmacokinetic studies were performed using 8-12-week-old mice (C57BL/6NJ, female, n =4 and male n = 4)). Mice were administered 50 mg/kg of compounds (1:1 of mixtures of (+)-JQ1 and (+)-JQ1-D) via intraperitoneal injection to mice. Twenty µl of blood was collected via the tail vein at 0, 15, 30 minutes, 1, 2, 4, 8, and 24 hours post treatment. To 10 ul of plasma was added 25 ul of MeOH with internal standard. The resulting mixtures were vortexed and span at rcf 15,000 for 15 min and 5 ul of the supernatant were injected into the UHPLC-Q Exactive Orbitrap MS for analysis. The concentrations of tested compounds were calculated based on their corresponding standard curves. Pharmacokinetic parameters including half-time (t1/2), area under the plasma concentration–time curve during the period of observation (AUC0–t), clearance normalized by bioavailability (CL/F) were calculated on WinNonlin software (Certara, Princeton, NJ) by noncompartmental analysis.

[5] = cited from earlier work
[6] = Isotopomeric ratios from the pharmacokinetic time course in mice; assay type: in vivo; conditions: first time point

| Structure (SMILES) | BRDT binding Kd [1] | Kd [1] | half-life at 1 h, 0.2 μM ([2]; human, microsomes) | IC50 [3] | AUC(0-t) ([4]; female mice) | CL/F ([4]; female mice) | half-life at 24 h ([4]; female mice) | AUC(0-t) ([4]; male mice) | CL/F ([4]; male mice) | half-life at 24 h ([4]; male mice) | half-life at 1 h, 0.2 μM ([2]; mouse, microsomes) | further results |
| --- | --- | --- | --- | --- | --- | --- | --- | --- | --- | --- | --- | --- |
| Cc1c(CF)sc2c1C(c1ccc(Cl)cc1)=N[C@@H](CC(=O)OC(C)(C)C)c1nnc(C)n1-2 [(+)-JQ1-F1] | lost potency | 722 nM | 52 min | – | – | – | – | – | – | – | – | – |
| Cc1c(C(F)F)sc2c1C(c1ccc(Cl)cc1)=N[C@@H](CC(=O)OC(C)(C)C)c1nnc(C)n1-2 [(+)-JQ1-F2] | lost potency | 3920 nM | 125 min | – | – | – | – | – | – | – | – | Human liver microsomal t1/2 ([2]; 0.1 mg/mL microsomal protein): substantially improved half-life |
| [2H]C([2H])([2H])c1sc2c(c1C)C(c1ccc(Cl)cc1)=N[C@@H](CC(=O)OC(C)(C)C)c1nnc(C)n1-2 [(+)-JQ1-D] | – | – | 22.5 min | […] | […] | 16.5 mL/min/kg | […] | 94200 ng·h/mL | […] | […] | 19.8 min | improvement of total exposure (AUC0–t) compared to (+)-JQ1 ([4]; female mice): 23%; improvement of total exposure (AUC0–t) compared to (+)-JQ1 ([4]; male mice): […] |
| Cc1sc2c(c1C)C(c1ccc(Cl)cc1)=N[C@@H](CC(=O)OC(C)(C)C)c1nnc(C)n1-2 [(+)-JQ1, reference compound] | – | – | […] | […] | […] | […] | 116 min | […] | […] | 202 min | […] | half-life at 0.2 μM ([2]; human, microsomes): 7.9 min; in vivo half-life [5]: about an hour |
| Cc1c(CO)sc2c1C(c1ccc(Cl)cc1)=N[C@@H](CC(=O)OC(C)(C)C)c1nnc(C)n1-2 [M1] | – | – | – | – | – | – | – | – | – | – | – | M1/M1D ratio ([6]; female mice): 2.095 ± 0.089; M1/M1D ratio ([6]; male mice): 1.799 ± 0.043 |
